Experimental data taken from patent publication US20220125793A1, “CANCER THERAPY USING 3,5-DISUBSTITUTED BENZENE ALKYNYL COMPOUND AND IMMUNE CHECKPOINT INHIBITOR” (TAIHO PHARMACEUTICAL CO., LTD., priority 2019, published 2022).

B1: vofatamab: an anti-FGFR3 antibody (antibody, chains of the INN, looked up, V domains shown)
VH: EVQLVESGGGLVQPGGSLRLSCAASGFTFTSTGISWVRQAPGKGLEWVGRIYPTSGSTNYADSVKGRFTISADTSKNTAYLQMNSLRAEDTAVYYCARTYGIYDLYVDYTEYVMDYWGQGTLVTVSS
VL: DIQMTQSPSSLSASVGDRVTITCRASQDVDTSLAWYKQKPGKAPKLLIYSASFLYSGVPSRFSGSGSGTDFTLTISSLQPEDFATYYCQQSTGHPQTFGQGTKVEIK

Legend:
[1] = tested on: mouse breast cancer cell line 4T1 subcutaneously implanted model; assay: Influence on tumor immunity in model subcutaneously implanted with mouse breast cancer cell 4T1; assay type: in vivo, BALB/cAJcl mouse; settings: Day 15
Method: Mouse breast cancer cell line 4T1 was subcutaneously implanted in a 6-week-old male BALB/cAJcl mouse. […] On the day following the final administration (Day 15), lymphocyte fractions were isolated from the tumor, spleen, and peripheral blood, and myeloid-derived suppressor cells (MDSCs) (CD11b^+/Gr−1^+ cells), CD4-positive T cells, and CD8-positive T cells were measured using a cell sorter.

urothelial cancer = settings: cited from earlier work
[2] = 15 and 30 mg/kg/day oral, daily for 14 days, compared with control

| Molecule | CD4-positive T cells in the peripheral blood lymphocyte fractions [1, 2] | CD8-positive T cells in the peripheral blood lymphocyte fractions [1, 2] | CD8-positive T cells in the spleen lymphocyte fractions [1, 2] | MDSCs in the peripheral blood lymphocyte fractions [1, 2] | MDSCs (CD11b+/Gr-1+ cells) in the spleen lymphocyte fractions ([1]; any dose (15 or 30 mg/kg/day oral, daily for 14 days), compared with non-drug administration control, Student's t-test P<0.01) | response in patients without FGFR genetic aberration (urothelial cancer; combined use with pembrolizumab) | sensitivity state of the cancer to immune checkpoint inhibitors (urothelial cancer; urothelial cancer patients, vofatamab administration) |
| --- | --- | --- | --- | --- | --- | --- | --- |
| C=CC(=O)N1CC[C@H](n2nc(C#Cc3cc(OC)cc(OC)c3)c3c(N)ncnc32)C1 [compound 1, (S)-1-(3-(4-amino-3-((3,5-dimethoxyphenyl)ethynyl)-1H-pyrazolo[3,4-d]pyrimidin-1-yl)pyrrolidin-1-yl)prop-2-en-1-one] | tended to increase in a dose-dependent manner | tended to increase in a dose-dependent manner | tended to increase in a dose-dependent manner | tended to decrease in a dose-dependent manner | significant reduction | – | – |
| B1 | – | – | – | – | – | response by combined use with pembrolizumab is observed | change from a “cold” state (low sensitivity to immune checkpoint inhibitors) to a “hot” state (high sensitivity to immune checkpoint inhibitors) |
